This is an account of results in patent US20220289758A1, “7-OXA-3,4-DIAZABICYCLO [4.1.0] HEPT-4-EN-2-ONE COMPOUND AND HERBICIDE” (Nippon Soda Co., Ltd., priority 2019, published 2022).

The subject of one series is Matricaria chamomilla. Description: Foliar spraying treatment, weed killing rate. In kind it is in vivo. The conditions noted are these: 504 h, read-out: herbicidal activity; for pest or weed control at 1000 g/ha: foliar spray, 1,000 g per hectare, after 3 weeks (Table 6); for pest or weed control at 250 g/ha: foliar spray, 250 g per hectare, after 3 weeks (Table 7). Here is the method: (§1) (1) Preparation of Test Emulsion
(§2) POA allylphenyl ether (4.1 parts by weight), POE-POP glycol (1 part by weight), POE sorbitan laurate (0.8 parts by weight), glycerin (2.6 parts by weight), dimethylformamide (65.9 parts by weight), N-methylpyrrolidone (5.1 parts by weight), cyclohexanone (15.4 parts by weight), and aromatic hydrocarbons (5.1 parts by weight) were mixed and dissolved to prepare an emulsion. The compound of the present invention (4 mg) was dissolved in this emulsion (100 μL) to prepare a test emulsion. POA means “polyoxyalkylene”, POE means “polyoxyethylene”, and POP means “polyoxypropylene”.
(§3) (2) Foliar Spraying Treatment
(§4) A 150 cm^2 pot was filled with soil, and seeds of Avena sativa, Matricaria chamomilla, Setaria faberi, Digitaria ciliaris, Abutilon theophrasti and Amaranthus retroflexus were sown into the surface layer which was covered lightly with soil. Thereafter, they were grown in a greenhouse. When each plant grew to a plant height of 2 to 4 cm, the above test emulsion was diluted so that the amount of the active ingredient became a predetermined amount, and sprayed on the foliage with a small sprayer at a spray water volume of 250 L per hectare.
(§5) After 3 weeks, above ground weights of weeds in the untreated and treated areas were measured for each weed, and the weed killing rate was calculated by the following calculation formula.
(§6) (4) Calculation Formula for Weed Killing Rate
(§7) Weed killing rate (%)=[(above ground weight of weeds in untreated area)−(above ground weight of weeds in treated area)/(above ground weight of weeds in untreated area)]×100

Another series deals with Digitaria ciliaris. Description: Foliar spraying treatment, weed killing rate. In kind it is in vivo. As to conditions: 504 h, read-out: herbicidal activity; for pest or weed control at 1000 g/ha: foliar spray, 1,000 g per hectare, after 3 weeks (Table 12); for pest or weed control at 250 g/ha: foliar spray, 250 g per hectare, after 3 weeks (Table 13). How it is done:
as §1, §2, §3, §4, §5, §6, §7

The next series relates to Abutilon theophrasti. Description: Foliar spraying treatment, weed killing rate. In kind it is in vivo. The conditions noted are these: 504 h, read-out: herbicidal activity; for pest or weed control at 1000 g/ha: foliar spray, 1,000 g per hectare, after 3 weeks (Table 4); for pest or weed control at 250 g/ha: foliar spray, 250 g per hectare, after 3 weeks (Table 5). Here is the method: as §1, §2, §3, §4, §5, §6, §7

The test system of another series is Amaranthus retroflexus. Description: Foliar spraying treatment, weed killing rate. In kind it is in vivo. As to conditions: 504 h, read-out: herbicidal activity; for pest or weed control at 1000 g/ha: foliar spray, 1,000 g per hectare, after 3 weeks (Table 14); for pest or weed control at 250 g/ha: foliar spray, 250 g per hectare, after 3 weeks (Table 15). How it is done: as §1, §2, §3, §4, §5, §6, §7

A further series deals with Setaria faberi. Description: Foliar spraying treatment, weed killing rate. As to conditions: 504 h, read-out: herbicidal activity; for pest or weed control at 250 g/ha: foliar spray, 250 g per hectare, after 3 weeks (Table 11); for pest or weed control at 1000 g/ha: foliar spray, 1,000 g per hectare, after 3 weeks (Table 10). In kind it is in vivo. How it is done: as §1, §2, §3, §4, §5, §6, §7

Where only a bound is given, the exact number is not on record here.

Regarding `COC12OC1(c1ccc3c(c1C)S(=O)(=O)CCC3(C)C)C=NN(C)C2=O` (centres unmarked) [Compound B-12], the pest or weed control at 1000 g/ha in the series with Matricaria chamomilla, in the series with Digitaria ciliaris, in the series on Abutilon theophrasti and in the series on Amaranthus retroflexus was at least 80% throughout.
Turning to `CN1N=CC2(c3ccc(C(F)(F)F)c4c3CCCS4(=O)=O)OC2(OCCON2C(=O)c3ccccc3C2=O)C1=O` (centres unmarked) [Compound B-2], the pest or weed control at 250 g/ha in the series with Matricaria chamomilla, in the series with Digitaria ciliaris, with Abutilon theophrasti, in the series on Amaranthus retroflexus and in the series on Setaria faberi was at least 80% in each case.
The term melting point denotes the temperature, or range, at which the solid turns liquid. `COC12OC1(c1ccc(C(F)(F)F)c3c1CCS3(=O)=O)C=NN(C)C2=O` (centres unmarked) [Compound B-10] displayed a melting point of 172 to 177 °C. Moreover, in the series with Matricaria chamomilla, the pest or weed control at 250 g/ha is at least 80% and the pest or weed control at 1000 g/ha is at least 80%. In the series with Abutilon theophrasti, the pest or weed control at 250 g/ha is at least 80% and the pest or weed control at 1000 g/ha was at least 80%. Moreover, in the series with Amaranthus retroflexus, the pest or weed control at 250 g/ha was at least 80% and the pest or weed control at 1000 g/ha was at least 80%.
As to `COC12OC1(c1ccc(C(F)(F)F)c3c1CCCCS3(=O)=O)C=NN(C)C2=O` (centres unmarked) [Compound B-9], the pest or weed control at 250 g/ha with Matricaria chamomilla, in the series with Digitaria ciliaris, with Abutilon theophrasti, with Amaranthus retroflexus and with Setaria faberi was at least 80% throughout. In addition, the pest or weed control at 1000 g/ha with Matricaria chamomilla, with Digitaria ciliaris, with Abutilon theophrasti, in the series on Amaranthus retroflexus and with Setaria faberi was at least 80% throughout.
With `COC12OC1(c1ccc(C(F)(F)F)c3c1OCCS3(=O)=O)C=NN(C)C2=O` (centres unmarked) [Compound B-13], the pest or weed control at 250 g/ha in the series with Matricaria chamomilla, in the series on Abutilon theophrasti and in the series with Amaranthus retroflexus was at least 80% in each case. Besides, the pest or weed control at 1000 g/ha in the series with Matricaria chamomilla, in the series with Digitaria ciliaris, with Abutilon theophrasti and with Amaranthus retroflexus was at least 80% each time.
In turn, `COC12OC1(c1cc3c(cc1S(C)(=O)=O)CCC3)C=NN(C)C2=O` (centres unmarked) [Compound B-6] had a melting point of 150 to 153 °C. In the series with Matricaria chamomilla, the pest or weed control at 250 g/ha is at least 80% and the pest or weed control at 1000 g/ha was at least 80%. Moreover, in the series on Digitaria ciliaris, the pest or weed control at 250 g/ha is at least 80% and the pest or weed control at 1000 g/ha was at least 80%. In the series on Abutilon theophrasti, the pest or weed control at 250 g/ha was at least 80% and the pest or weed control at 1000 g/ha was at least 80%. In the series on Amaranthus retroflexus, the pest or weed control at 250 g/ha is at least 80% and the pest or weed control at 1000 g/ha was at least 80%.
Regarding `CN1N=CC2(c3ccc(C(F)(F)F)c4c3CCCS4(=O)=O)OC2(OCc2ccn(CC(F)(F)F)n2)C1=O` (centres unmarked) [Compound B-3], the melting point was 112 to 117 °C. Also, the pest or weed control at 250 g/ha in the series with Abutilon theophrasti was at least 80%. Besides, the pest or weed control at 250 g/ha with Amaranthus retroflexus was at least 80%. Besides, in the series with Setaria faberi, the pest or weed control at 250 g/ha is at least 80%.
Turning to `COC12OC1(c1ccc(C(F)(F)F)c3c1CCCS3(=O)=O)C=NN(C)C2=O` (centres unmarked) [Compound B-1, 1-methoxy-3-methyl-6-(1,1-dioxido-8-(trifluoromethyl)thiochroman-5-yl)-7-oxa-3,4-diazabicyclo [4.1.0] hept-4-en-2-one], the pest or weed control at 250 g/ha in the series with Matricaria chamomilla, in the series with Digitaria ciliaris, in the series on Abutilon theophrasti, with Amaranthus retroflexus and with Setaria faberi was at least 80% each time. Further, the pest or weed control at 1000 g/ha in the series with Matricaria chamomilla, in the series on Digitaria ciliaris, in the series with Abutilon theophrasti, with Amaranthus retroflexus and in the series with Setaria faberi was at least 80% throughout.
As for `COC12OC1(c1ccc(C(F)(F)F)c(S(C)(=O)=Nc3ccc(Cl)cc3)c1C)C=NN(C)C2=O` (centres unmarked) [Compound B-15], the pest or weed control at 250 g/ha with Matricaria chamomilla, in the series with Digitaria ciliaris, in the series with Abutilon theophrasti, in the series with Amaranthus retroflexus and with Setaria faberi was at least 80% each time.
Turning to `COC12OC1(c1ccc(C(F)(F)F)c3c1S(=O)(=O)CCC3)C=NN(C)C2=O` (centres unmarked) [Compound B-5], the melting point was 132 to 134 °C. Further, the pest or weed control at 250 g/ha in the series on Matricaria chamomilla is at least 80%. For the same compound, in the series on Digitaria ciliaris, the pest or weed control at 250 g/ha was at least 80%. For the same compound, the pest or weed control at 250 g/ha with Abutilon theophrasti was at least 80%. In the series on Amaranthus retroflexus, the pest or weed control at 250 g/ha was at least 80%. Besides, the pest or weed control at 250 g/ha with Setaria faberi is at least 80%.
`COC12OC1(c1ccc(C(F)(F)F)c3c1CCCO3)C=NN(C)C2=O` (centres unmarked) [Compound B-8]: the melting point was 153 to 155 °C. In the series with Abutilon theophrasti, the pest or weed control at 1000 g/ha is at least 80%. Moreover, in the series on Amaranthus retroflexus, the pest or weed control at 250 g/ha is at least 80% and the pest or weed control at 1000 g/ha was at least 80%.
Regarding `COC12OC1(c1ccc(C(F)(F)F)c(N=S3(=O)CCCCC3)c1Cl)C=NN(C)C2=O` (centres unmarked) [Compound B-4], the melting point was in the range of 158 to 161 °C. In the series on Setaria faberi, the pest or weed control at 250 g/ha is at least 80%.
Regarding `COC12OC1(c1ccc(C(F)(F)F)cc1S(C)(=O)=O)C=NN(C1CCCCO1)C2=O` (centres unmarked) [Compound B-14], the melting point fell in the range of 65 to 66 °C. Moreover, the pest or weed control at 1000 g/ha in the series on Digitaria ciliaris was at least 80%. In the series with Amaranthus retroflexus, the pest or weed control at 250 g/ha is at least 80% and the pest or weed control at 1000 g/ha was at least 80%. Further, the pest or weed control at 1000 g/ha with Setaria faberi is at least 80%.
Consider `COC12OC1(c1cccc3c1CCCS3(=O)=O)C=NN(C)C2=O` (centres unmarked) [Compound B-7], for which the melting point is 179 to 181 °C. In addition, in the series with Matricaria chamomilla, the pest or weed control at 250 g/ha was at least 80% and the pest or weed control at 1000 g/ha is at least 80%. Besides, in the series on Digitaria ciliaris, the pest or weed control at 1000 g/ha is at least 80%. In the series on Abutilon theophrasti, the pest or weed control at 1000 g/ha was at least 80%. Moreover, the pest or weed control at 1000 g/ha in the series on Amaranthus retroflexus is at least 80%. The pest or weed control at 1000 g/ha in the series on Setaria faberi was at least 80%.
Consider `COC12OC1(c1cc(F)c(C(F)(F)F)c3c1CCCS3(=O)=O)C=NN(C)C2=O` (centres unmarked) [Compound B-16], for which the melting point is 205 to 206 °C. For the same compound, in the series with Matricaria chamomilla, the pest or weed control at 1000 g/ha was at least 80%. Also, the pest or weed control at 1000 g/ha in the series on Digitaria ciliaris was at least 80%. In the series on Abutilon theophrasti, the pest or weed control at 1000 g/ha is at least 80%. Further, the pest or weed control at 1000 g/ha in the series on Amaranthus retroflexus was at least 80%. Moreover, the pest or weed control at 1000 g/ha in the series with Setaria faberi was at least 80%.
On to `COC12OC1(c1cc(C)c3c(c1C)C1(CCS3(=O)=O)OCCO1)C=NN(C)C2=O` (centres unmarked) [Compound B-11], for which the pest or weed control at 1000 g/ha in the series with Matricaria chamomilla, in the series with Digitaria ciliaris, in the series with Abutilon theophrasti, in the series with Amaranthus retroflexus and in the series on Setaria faberi was at least 80% each time. Further, the pest or weed control at 250 g/ha in the series on Digitaria ciliaris, in the series on Abutilon theophrasti and in the series on Amaranthus retroflexus was at least 80% in each case.
As for `COC12OC1(c1ccc(C(F)(F)F)cc1S(C)(=O)=O)C=NN(C)C2=O` (centres unmarked) [Compound A-1, 1-methoxy-3-methyl-6-(2-(methylsulfonyl)-4-(trifluoromethyl)phenyl)-7-oxa-3,4-diazabicyclo [4.1.0] hept-4-en-2-one], the melting point came to 128 °C. In the series on Matricaria chamomilla, the pest or weed control at 250 g/ha was at least 80% and the pest or weed control at 1000 g/ha is at least 80%. Moreover, in the series with Digitaria ciliaris, the pest or weed control at 250 g/ha was at least 80% and the pest or weed control at 1000 g/ha was at least 80%. In the series on Abutilon theophrasti, the pest or weed control at 250 g/ha was at least 80% and the pest or weed control at 1000 g/ha was at least 80%. In addition, in the series on Amaranthus retroflexus, the pest or weed control at 250 g/ha is at least 80% and the pest or weed control at 1000 g/ha is at least 80%. For the same compound, in the series with Setaria faberi, the pest or weed control at 250 g/ha is at least 80% and the pest or weed control at 1000 g/ha is at least 80%.
